From PMC3412845, “Waking Action of Ursodeoxycholic Acid (UDCA) Involves Histamine and GABAA Receptor Block” (PLoS ONE, 2012)

Legend:
NMDA receptors = experiment: NMDA-evoked currents in isolated neurons; format: cell-based; conditions: D-AP5 100 µM
Procedure: (§1) Recordings from histaminergic neurons in male Wistar rat (22–26 day old) or 30–60 day old mouse (SV129, histidine decarboxylase deficient HDC−/− or their wild type littermates) hypothalamic slices were performed as previously described. Slices were obtained between 9 and 11 a.m. In the beginning of whole-cell voltage clamp recordings TMN neurons were identified with the help of DIC microscopy and electrophysiological criteria as previously described. Inhibitory postsynaptic currents (IPSCs) were evoked by local stimulation through a bipolar stainless-steel stimulating electrode (50 µm; WPI, UK). The stimulation of axonal endings coming to TMN from ventrolateral preoptic area (VLPO) was done as described in [22]. Visual identification of histaminergic neurons recorded in cell-attached configuration (see [16]) was confirmed by the significant reduction of firing rate by the histamine 3 (H3) receptor agonist R-α-methylhistamine (0.2 µM), which was performed at the end of each experiment. Individual neurons were separated by vibrodissociation after brief preincubation with papain from the hypothalamic slices of mice or rats and identified as TMN neurons according to their size and shape. Identification was confirmed post hoc with the single-cell RT-PCR (all data presented in the manuscript were obtained from histidine decarboxylase-expressing neurons), [40]. TMN neurons from HDC−/− mice were identified by the expression of peripherin [16]. Whole-cell voltage-clamp recordings from isolated neurons were done with an EPC-9 amplifier and TIDA for Windows (HEKA, Lambrecht, Germany) at room temperature. Membrane potentials were not corrected for liquid junction potential (5.6 mV, calculated with LJPCalc, Barry, 1994). The intracellular solution was composed of (in mM) 140 KCl, 2 MgCl2, 0.5 CaCl2, 5 EGTA, 2 ATP and 10 HEPES (pH 7.2 adjusted with NaOH). A fast perfusion technique was used for application of ligands and modulators of fast ionotropic receptors, [41]. […] EC50 is the ligand concentration producing a half-maximal response, [ligand] is ligand concentration, and n is the Hill slope. Hill coefficients were obtained from the slope of the log/log plot of the dose-response curves. […] Steady-state amplitudes of the responses were used for the construction of dose-response plots if not mentioned otherwise.
For the testing of UDCA action at NMDA receptors a maximal 0.2 mM concentration of agonist was used. Recordings were done in Mg^2+ -free solution in the presence of 10 µM of glycine. NMDA-currents were abolished by the NMDA receptor antagonist D-AP5 (100 µM).

GABAA receptor = experiment: Voltage dependence of GABAAR block (Woodhull analysis); format: cell-based; conditions: Woodhull fit, Eq. 3; for Kd: read-out: KD(0), dissociation constant at 0 mV
Procedure: Voltage dependence of GABAAR block by UDCA was analysed according to the method of Woodhull, which provides a means of calculating the fraction of the transmembrane field sensed by charged blocking ligand at its acceptor site.

[1] = biological target: T1, α1β2γ2L GABAA receptors (WT) (UniProt P22723+P62813+P63138); experiment: Patch-clamp of recombinant wild-type α1β2γ2L GABAAR in HEK293 cells; format: cell-based, rat α1, rat β2, mouse γ2L; conditions: pregnenolone sulphate 10 µM
T1 construct: expressed in transfected cells; host or cells: HEK293
Procedure: (§2) HEK 293 cells were obtained from DSM (Deutsche Sammlung von Mikroorganismen und Zellkulturen GmbH, DSM, Braunschweig). They were grown and maintained according to published standard protocols. Briefly, cells were grown in minimal essential medium supplemented with 10% fetal bovine serum, 100units/ml penicillin and streptomycin and 2 mM L-glutamine and splitted once per week. Semiconfluent cells were transfected on the third day after splitting with the help of Lipofectamine 2000 (Invitrogen), recordings were done 48–72 hrs after transfection.
(§3) The GABAAR subunit cDNAs, generously donated by G.Gisselmann (rat α1, mouse γ2L, rat β1, β2 and human β3 [26]) and J.H. Steinbach (rat α1V256S [28] and rat α1Q241L [44]), were subcloned into pcDNA3 (Invitrogen, Karlsruhe, Germany) and applied in a ratio 1∶1∶1 for the α1βxγ2L receptor and 1∶1 for α1β3 or β3γ2L receptors. […] For each receptor type patch clamp recordings were obtained from at least three separate transfections. Whole-cell patch clamp recordings were done in a similar extracellular solution as for the native cells (see above) except that the concentration of MgCl2 was reduced to 1.2 mM. Intracellular electrodes contained 140 mM CsCl (instead of KCl), pH adjusted with CsOH. The voltage was held at −40 mV.

[2] = biological target: T2, α1V256Sβ2γ2L GABAA receptors (UniProt P22723+P62813+P63138, V283S); experiment: Patch-clamp of mutant α1V256Sβ2γ2L GABAAR in HEK293 cells; format: cell-based, rat α1V256S, rat β2, mouse γ2L; conditions: pregnenolone sulphate 10 µM
T2 construct: expressed in transfected cells; host or cells: HEK293
Procedure: as §2, §3

[3] = system: isolated TMN neurons (sIPSCs); experiment: sIPSCs in acutely isolated and cultured neurons; format: cell-based; conditions: gabazine
Procedure: as §1, with “Visual identification of histaminergic neurons recorded in cell-attached configuration (see [16]) was confirmed by the significant reduction of firing rate by the histamine 3 (H3) receptor agonist R-α-methylhistamine (0.2 µM), which was performed at the end of each experiment.” left out

[4] = system: TMN neurons (eIPSCs and sIPSCs); experiment: Spontaneous and evoked IPSCs in TMN neurons in brain slices; format: cell-based, rat; conditions: gabazine 10 µM, n = 5
Procedure: as §1, with “Visual identification of histaminergic neurons recorded in cell-attached configuration (see [16]) was confirmed by the significant reduction of firing rate by the histamine 3 (H3) receptor agonist R-α-methylhistamine (0.2 µM), which was performed at the end of each experiment.” left out

[5] = system: cultured hypothalamic neurons; experiment: Microelectrode array (MEA) recordings of cultured hypothalamic neurons; format: cell-based, mouse; conditions: with GABAA receptor antagonist gabazine
Procedure: Primary dissociated cultures of posterior hypothalamus were prepared from newborn mice according to the protocols previously described, [43]. […] Recordings were done between 11th-21st day after plating. […] Signals from all 60 electrodes were simultaneously sampled at 25 kHz, visualized and stored using the standard software […] provided by Multi Channel Systems. Spike detection and analysis was performed offline with the software […] (RESULT Medizinische […], Germany), which uses the agreement coefficient “Cohen's kappa” (κ) to assess the degree of spike and burst synchrony for selected pairs of electrodes. […] In order to describe the distribution of kappa across the whole MEA, we calculated the mean of all kappa-values obtained for pairs of “active” electrodes. At the beginning of experiments the basal medium was replaced by a magnesium-free HEPES-based recording solution (see above) and measurements were started after a 20 min adaptation phase. Every measurement comprised three recordings - control, test substance and washout (second control) - each two minutes long and separated by an intermediate period of 30 seconds.

native GABAA receptors = experiment: GABA-evoked whole-cell currents in acutely isolated TMN neurons (wild type); format: cell-based, mouse
Procedure: as §1, with “Visual identification of histaminergic neurons recorded in cell-attached configuration (see [16]) was confirmed by the significant reduction of firing rate by the histamine 3 (H3) receptor agonist R-α-methylhistamine (0.2 µM), which was performed at the end of each experiment.” left out

[6] = system: GABAA receptors of HDC−/− TMN neurons; experiment: GABA-evoked whole-cell currents in TMN neurons from HDC−/− mice; format: cell-based, mouse
Procedure: as §1, with “Visual identification of histaminergic neurons recorded in cell-attached configuration (see [16]) was confirmed by the significant reduction of firing rate by the histamine 3 (H3) receptor agonist R-α-methylhistamine (0.2 µM), which was performed at the end of each experiment.” left out

T2 sequence (P62813 28-455 V283S): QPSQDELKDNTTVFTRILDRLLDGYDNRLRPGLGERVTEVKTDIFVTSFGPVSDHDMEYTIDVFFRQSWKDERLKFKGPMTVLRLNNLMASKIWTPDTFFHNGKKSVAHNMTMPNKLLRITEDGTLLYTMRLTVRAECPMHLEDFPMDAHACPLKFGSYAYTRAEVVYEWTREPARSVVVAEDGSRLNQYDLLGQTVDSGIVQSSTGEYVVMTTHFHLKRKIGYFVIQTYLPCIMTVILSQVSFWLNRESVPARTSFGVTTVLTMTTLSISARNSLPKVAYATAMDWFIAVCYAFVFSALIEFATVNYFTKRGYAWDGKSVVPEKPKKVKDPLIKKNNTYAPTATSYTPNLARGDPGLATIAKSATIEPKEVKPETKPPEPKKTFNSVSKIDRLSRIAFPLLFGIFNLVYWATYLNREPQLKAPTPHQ
T2 sequence (P63138 25-474 limits assumed): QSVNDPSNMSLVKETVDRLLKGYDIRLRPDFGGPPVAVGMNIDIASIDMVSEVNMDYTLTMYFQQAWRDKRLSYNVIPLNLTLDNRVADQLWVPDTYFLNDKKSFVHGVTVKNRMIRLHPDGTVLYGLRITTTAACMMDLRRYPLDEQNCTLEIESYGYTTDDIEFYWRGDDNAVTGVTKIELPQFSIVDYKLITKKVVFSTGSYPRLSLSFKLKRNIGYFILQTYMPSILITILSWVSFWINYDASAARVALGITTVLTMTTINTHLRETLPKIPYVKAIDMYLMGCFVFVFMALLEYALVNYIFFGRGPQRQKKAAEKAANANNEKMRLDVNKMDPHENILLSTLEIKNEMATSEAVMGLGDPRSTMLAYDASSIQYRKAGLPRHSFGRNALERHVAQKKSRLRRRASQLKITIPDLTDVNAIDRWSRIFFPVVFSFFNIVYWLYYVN
T2 sequence (P22723 39-474): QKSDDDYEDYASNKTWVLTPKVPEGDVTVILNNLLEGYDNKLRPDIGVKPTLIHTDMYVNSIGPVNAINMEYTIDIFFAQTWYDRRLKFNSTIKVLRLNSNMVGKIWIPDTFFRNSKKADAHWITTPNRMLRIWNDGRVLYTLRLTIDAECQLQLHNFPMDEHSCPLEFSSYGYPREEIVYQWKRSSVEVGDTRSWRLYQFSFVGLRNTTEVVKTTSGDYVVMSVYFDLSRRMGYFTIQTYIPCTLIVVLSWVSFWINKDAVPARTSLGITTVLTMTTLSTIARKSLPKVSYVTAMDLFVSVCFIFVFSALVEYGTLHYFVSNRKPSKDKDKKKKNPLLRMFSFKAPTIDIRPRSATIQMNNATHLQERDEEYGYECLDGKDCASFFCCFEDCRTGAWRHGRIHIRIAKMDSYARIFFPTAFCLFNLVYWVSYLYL
T1 sequence (P62813 28-455): as the sequence (P62813 28-455 V283S) above, with S256V counted along it
T1 sequence (P63138 25-474 limits assumed): as the sequence (P63138 25-474 limits assumed) above
T1 sequence (P22723 39-474): as the sequence (P22723 39-474) above

Molecule: NC(CCCP(=O)(O)O)C(=O)O [D-AP5]
- NMDA-currents (NMDA receptors): abolished

Molecule: C[C@H](CCC(=O)O)[C@H]1CC[C@H]2[C@@H]3C(=O)C[C@@H]4CC(=O)CC[C@]4(C)[C@H]3CC(=O)[C@]12C [dehydrocholate]
- fraction of the transmembrane field sensed at the acceptor site (f) (GABAA receptor): 0.33±0.03
- Kd (GABAA receptor): 1400 µM

Molecule: CC(=O)C1CCC2C3CC=C4CC(OS(=O)(=O)O)CCC4(C)C3CCC12C (centres unmarked) [Pregnenolone sulphate, pregnenolone sulphate]
- steady-state amplitude of maximal GABA-currents [1]: 11±3 % of control
- steady-state amplitude of maximal GABA-currents [2]: 82±6 % of control

Molecule: COc1ccc(-c2ccc(=N)n(CCCC(=O)O)n2)cc1 [Gabazine, gabazine]
- GABAergic sIPSCs in isolated TMN neuron [3]: abolished
- eIPSCs and sIPSCs [4]: abolished

Molecule: C[C@H](CCC(=O)O)[C@H]1CC[C@H]2[C@@H]3[C@H](O)C[C@@H]4C[C@H](O)CC[C@]4(C)[C@H]3C[C@H](O)[C@]12C [cholate]
- fraction of the transmembrane field sensed at the acceptor site (f) (GABAA receptor): 0.3±0.02
- Kd (GABAA receptor): 710 µM

Molecule: C[C@H](CCC(=O)O)[C@H]1CC[C@H]2[C@@H]3[C@H](O)C[C@@H]4C[C@H](O)CC[C@]4(C)[C@H]3CC[C@]12C [CDOC, chenodeoxycholate]
- fraction of the transmembrane field sensed at the acceptor site (f) (GABAA receptor): 0.33±0.02
- Kd (GABAA receptor): 42 µM

Molecule: C[C@H](CCC(=O)NCCS(=O)(=O)O)[C@H]1CC[C@H]2[C@@H]3[C@@H](O)C[C@@H]4C[C@H](O)CC[C@]4(C)[C@H]3CC[C@]12C [TUDC, tauroursodeoxycholate]
- effect on synchronization in the presence of gabazine [5]: blanks the effect

Molecule: picrotoxin
- use dependence of block of GABA currents (native GABAA receptors): use-dependent block
- reversibility of block of GABA currents (native GABAA receptors; GABA 10 µM, 1 s): not fully reversible

Molecule: Cc1ccc(-c2nc3ccc(C)cn3c2CC(=O)N(C)C)cc1 [zolpidem]
- modulation of GABAAR, HDC+/+ versus HDC−/− TMN neurons [6]: No difference

Molecule: CC1CC(C)(c2ccccc2)OC(C)O1 (centres unmarked) [vertacetal]
- EC50 ([6]; HDC−/− neurons, n = 5, read-out: EC50 of GABAAR modulation by vertacetal): 9.2 ± 3 µM
- EC50 (native GABAA receptors; wild type neurons, n = 5, read-out: EC50 of GABAAR modulation by vertacetal): 13.4 ± 2.6 µM
